Tests used:
ISC-enriched organoids [1] = experiment: Primary screen, 384-well 2.5-D organoid differentiation (ENR+CD, 6 days, Target Selective Inhibitor Library, vs whole-plate median): ATP (CellTiter-Glo 3D, CTG); details: for Dose.FC.CTG: FC vs plate median; for SSMD.CTG: strictly standardized mean difference; for Dose.FC.CTG (log 2 fold change, ATP): vs plate median
ISC-enriched organoids [2] = experiment: Primary screen, 384-well 2.5-D organoid differentiation (ENR+CD, 6 days): basal lysozyme secretion (LYZ.NS); assay type: cell-based, murine; details: for Dose.FC.LYZ.NS: FC vs plate median; for SSMD.LYZ.NS: strictly standardized mean difference; for Dose.FC.LYZ.NS (log 2 fold change, basal lysozyme secretion): vs plate median
Text: (§1) High-throughput screening.

ISC-enriched organoids [3] = experiment: Primary screen, 384-well 2.5-D organoid differentiation (ENR+CD, 6 days): carbachol-induced lysozyme secretion (LYZ.S); assay type: cell-based, murine; details: for Dose.FC.LYZ.S / Z.LYZ.S / SSMD.LYZ.S: primary screen; for Dose.FC.LYZ.S: FC vs plate median; for Z.LYZ.S: standard z score; for SSMD.LYZ.S: strictly standardized mean difference; for Dose.FC.LYZ.S (log 2 fold change, carbachol-induced lysozyme secretion): vs plate median
Text: as §1

[4] = Dose 0.08 uM, standard z score of FC
[5] = Dose 0.40 uM, standard z score of FC
[6] = Dose 2.00 uM, standard z score of FC
[7] = Dose 10.00 uM, standard z score of FC
[8] = primary screen, 1st of the 4 dose lines of the treatment (dose not given)
[9] = primary screen, 2nd of the 4 dose lines of the treatment (dose not given)
[10] = primary screen, 3rd of the 4 dose lines of the treatment (dose not given)
[11] = primary screen, 4th of the 4 dose lines of the treatment (dose not given)
[12] = 1st of the 4 dose lines of the treatment (dose not given)
[13] = 2nd of the 4 dose lines of the treatment (dose not given)
[14] = 3rd of the 4 dose lines of the treatment (dose not given)
[15] = 4th of the 4 dose lines of the treatment (dose not given)
[16] = Dose 0.08 uM, primary screen, standard z score
[17] = Dose 0.40 uM, primary screen, standard z score
[18] = Dose 2.00 uM, primary screen, standard z score
[19] = Dose 10.00 uM, primary screen, standard z score
[20] = primary screen, dose 0.08 uM, ENR+CD 6 days
[21] = primary screen, dose 0.08 uM, standard z score of FC
[22] = primary screen, dose 0.40 uM, ENR+CD 6 days
[23] = primary screen, dose 0.40 uM, standard z score of FC
[24] = primary screen, dose 2.00 uM, ENR+CD 6 days
[25] = primary screen, dose 2.00 uM, standard z score of FC
[26] = primary screen, dose 10.00 uM, ENR+CD 6 days
[27] = primary screen, dose 10.00 uM, standard z score of FC

COc1ccc(CNCc2cccc3ccccc23)cc1.Cl [ML133 HCl]
Dose.FC.CTG (ISC-enriched organoids [1]; Dose 0.08 uM, primary screen): −0.009 log 2 fold change
Z.CTG (ISC-enriched organoids [1]; [4]): −0.023
Dose.FC.CTG (ISC-enriched organoids [1]; Dose 0.40 uM, primary screen): −0.151 log 2 fold change
Z.CTG (ISC-enriched organoids [1]; [5]): −0.360
Dose.FC.CTG (ISC-enriched organoids [1]; Dose 2.00 uM, primary screen): −0.247 log 2 fold change
Z.CTG (ISC-enriched organoids [1]; [6]): −0.591
Dose.FC.CTG (ISC-enriched organoids [1]; Dose 10.00 uM, primary screen): −0.040 log 2 fold change
Z.CTG (ISC-enriched organoids [1]; [7]): −0.096
SSMD.CTG (ISC-enriched organoids [1]; [8]): −0.026
SSMD.CTG (ISC-enriched organoids [1]; [9]): −0.437
SSMD.CTG (ISC-enriched organoids [1]; [10]): −0.560
SSMD.CTG (ISC-enriched organoids [1]; [11]): −0.133
Dose.FC.LYZ.NS (ISC-enriched organoids [2]; Dose 0.08 uM, primary screen): 0.030 log 2 fold change
Z.LYZ.NS (ISC-enriched organoids [2]; [4]): 0.261
Dose.FC.LYZ.NS (ISC-enriched organoids [2]; Dose 0.40 uM, primary screen): −0.013 log 2 fold change
Z.LYZ.NS (ISC-enriched organoids [2]; [5]): −0.116
Dose.FC.LYZ.NS (ISC-enriched organoids [2]; Dose 2.00 uM, primary screen): 0.073 log 2 fold change
Z.LYZ.NS (ISC-enriched organoids [2]; [6]): 0.633
Dose.FC.LYZ.NS (ISC-enriched organoids [2]; Dose 10.00 uM, primary screen): −0.018 log 2 fold change
Z.LYZ.NS (ISC-enriched organoids [2]; [7]): −0.155
SSMD.LYZ.NS (ISC-enriched organoids [2]; [8]): 0.282
SSMD.LYZ.NS (ISC-enriched organoids [2]; [9]): −0.131
SSMD.LYZ.NS (ISC-enriched organoids [2]; [10]): 0.740
SSMD.LYZ.NS (ISC-enriched organoids [2]; [11]): −0.152
Dose.FC.LYZ.S (ISC-enriched organoids [3]; Dose 0.08 uM): 0.062 log 2 fold change
Dose.FC.LYZ.S (ISC-enriched organoids [3]; Dose 0.40 uM): −0.018 log 2 fold change
Dose.FC.LYZ.S (ISC-enriched organoids [3]; Dose 2.00 uM): 0.087 log 2 fold change
Dose.FC.LYZ.S (ISC-enriched organoids [3]; Dose 10.00 uM): −0.014 log 2 fold change
Z.LYZ.S (ISC-enriched organoids [3]; [12]): 0.404
Z.LYZ.S (ISC-enriched organoids [3]; [13]): −0.118
Z.LYZ.S (ISC-enriched organoids [3]; [14]): 0.565
Z.LYZ.S (ISC-enriched organoids [3]; [15]): −0.089
SSMD.LYZ.S (ISC-enriched organoids [3]; [12]): 0.324
SSMD.LYZ.S (ISC-enriched organoids [3]; [13]): −0.129
SSMD.LYZ.S (ISC-enriched organoids [3]; [14]): 0.368
SSMD.LYZ.S (ISC-enriched organoids [3]; [15]): −0.088

NC(=O)c1cccc(-c2cc(Nc3ccc(OC(F)(F)F)cc3)ncn2)c1 [GNF-2]
Dose.FC.CTG (ISC-enriched organoids [1]; Dose 0.08 uM, primary screen): 0.157 log 2 fold change
Z.CTG (ISC-enriched organoids [1]; [16]): 0.376
Dose.FC.CTG (ISC-enriched organoids [1]; Dose 0.40 uM, primary screen): 0.090 log 2 fold change
Z.CTG (ISC-enriched organoids [1]; [17]): 0.214
Dose.FC.CTG (ISC-enriched organoids [1]; Dose 2.00 uM, primary screen): 0.074 log 2 fold change
Z.CTG (ISC-enriched organoids [1]; [18]): 0.176
Dose.FC.CTG (ISC-enriched organoids [1]; Dose 10.00 uM, primary screen): 0.100 log 2 fold change
Z.CTG (ISC-enriched organoids [1]; [19]): 0.240
Dose.FC.LYZ.NS (ISC-enriched organoids [2]; Dose 0.08 uM, primary screen): 0.159 log 2 fold change
Z.LYZ.NS (ISC-enriched organoids [2]; [16]): 1.386
Dose.FC.LYZ.NS (ISC-enriched organoids [2]; Dose 0.40 uM, primary screen): −0.024 log 2 fold change
Z.LYZ.NS (ISC-enriched organoids [2]; [17]): −0.206
Dose.FC.LYZ.NS (ISC-enriched organoids [2]; Dose 2.00 uM, primary screen): 0.012 log 2 fold change
Z.LYZ.NS (ISC-enriched organoids [2]; [18]): 0.102
Dose.FC.LYZ.NS (ISC-enriched organoids [2]; Dose 10.00 uM, primary screen): −0.033 log 2 fold change
Z.LYZ.NS (ISC-enriched organoids [2]; [19]): −0.286
Dose.FC.LYZ.S (ISC-enriched organoids [3]; Dose 0.08 uM): 0.121 log 2 fold change
Dose.FC.LYZ.S (ISC-enriched organoids [3]; Dose 0.40 uM): 0.001 log 2 fold change
Dose.FC.LYZ.S (ISC-enriched organoids [3]; Dose 2.00 uM): 0.046 log 2 fold change
Dose.FC.LYZ.S (ISC-enriched organoids [3]; Dose 10.00 uM): −0.015 log 2 fold change

COC1CCN(C(=O)c2cc(Cc3n[nH]c(=O)c4ccccc34)ccc2F)CC1 [AZD2461]
Dose.FC.CTG (ISC-enriched organoids [1]; [20]): 0.073 log 2 fold change
Z.CTG (ISC-enriched organoids [1]; [21]): 0.174
Dose.FC.CTG (ISC-enriched organoids [1]; [22]): −0.040 log 2 fold change
Z.CTG (ISC-enriched organoids [1]; [23]): −0.095
Dose.FC.CTG (ISC-enriched organoids [1]; [24]): −0.232 log 2 fold change
Z.CTG (ISC-enriched organoids [1]; [25]): −0.555
Dose.FC.CTG (ISC-enriched organoids [1]; [26]): −0.336 log 2 fold change
Z.CTG (ISC-enriched organoids [1]; [27]): −0.803
Dose.FC.LYZ.NS (ISC-enriched organoids [2]; [20]): 0.038 log 2 fold change
Z.LYZ.NS (ISC-enriched organoids [2]; [21]): 0.334
Dose.FC.LYZ.NS (ISC-enriched organoids [2]; [22]): −0.038 log 2 fold change
Z.LYZ.NS (ISC-enriched organoids [2]; [23]): −0.327
Dose.FC.LYZ.NS (ISC-enriched organoids [2]; [24]): −0.074 log 2 fold change
Z.LYZ.NS (ISC-enriched organoids [2]; [25]): −0.641
Dose.FC.LYZ.NS (ISC-enriched organoids [2]; [26]): −0.172 log 2 fold change
Z.LYZ.NS (ISC-enriched organoids [2]; [27]): −1.497
Dose.FC.LYZ.S (ISC-enriched organoids [3]; dose 0.08 uM, ENR+CD 6 days): 0.097 log 2 fold change
Dose.FC.LYZ.S (ISC-enriched organoids [3]; dose 0.40 uM, ENR+CD 6 days): 0.015 log 2 fold change
Dose.FC.LYZ.S (ISC-enriched organoids [3]; dose 2.00 uM, ENR+CD 6 days): −0.100 log 2 fold change
Dose.FC.LYZ.S (ISC-enriched organoids [3]; dose 10.00 uM, ENR+CD 6 days): −0.224 log 2 fold change

COc1ccc2cc(-c3nc(-c4ccc([S+](C)[O-])cc4)[nH]c3-c3ccncc3)ccc2c1 (stereo not drawn) [Tie2 kinase inhibitor]
Z.CTG (standard z score) (ISC-enriched organoids [1]; dose 0.08 uM): 0.012
Dose.FC.CTG (log 2 fold change, ATP) (ISC-enriched organoids [1]; dose 0.08 uM): 0.005
Z.CTG (standard z score) (ISC-enriched organoids [1]; dose 0.40 uM): 0.177
Dose.FC.CTG (log 2 fold change, ATP) (ISC-enriched organoids [1]; dose 0.40 uM): 0.074
Z.CTG (standard z score) (ISC-enriched organoids [1]; dose 2.00 uM): −0.750
Dose.FC.CTG (log 2 fold change, ATP) (ISC-enriched organoids [1]; dose 2.00 uM): −0.314
Z.CTG (standard z score) (ISC-enriched organoids [1]; dose 10.00 uM): −1.311
Dose.FC.CTG (log 2 fold change, ATP) (ISC-enriched organoids [1]; dose 10.00 uM): −0.549
Z.LYZ.NS (standard z score) (ISC-enriched organoids [2]; dose 0.08 uM): 0.080
Dose.FC.LYZ.NS (log 2 fold change, basal lysozyme secretion) (ISC-enriched organoids [2]; dose 0.08 uM): 0.009
Z.LYZ.NS (standard z score) (ISC-enriched organoids [2]; dose 0.40 uM): 0.019
Dose.FC.LYZ.NS (log 2 fold change, basal lysozyme secretion) (ISC-enriched organoids [2]; dose 0.40 uM): 0.002
Z.LYZ.NS (standard z score) (ISC-enriched organoids [2]; dose 2.00 uM): 1.577
Dose.FC.LYZ.NS (log 2 fold change, basal lysozyme secretion) (ISC-enriched organoids [2]; dose 2.00 uM): 0.181
Z.LYZ.NS (standard z score) (ISC-enriched organoids [2]; dose 10.00 uM): −0.274
Dose.FC.LYZ.NS (log 2 fold change, basal lysozyme secretion) (ISC-enriched organoids [2]; dose 10.00 uM): −0.031
Dose.FC.LYZ.S (log 2 fold change, carbachol-induced lysozyme secretion) (ISC-enriched organoids [3]; dose 0.08 uM): 0.018
Dose.FC.LYZ.S (log 2 fold change, carbachol-induced lysozyme secretion) (ISC-enriched organoids [3]; dose 0.40 uM): −0.021
Dose.FC.LYZ.S (log 2 fold change, carbachol-induced lysozyme secretion) (ISC-enriched organoids [3]; dose 2.00 uM): 0.024
Dose.FC.LYZ.S (log 2 fold change, carbachol-induced lysozyme secretion) (ISC-enriched organoids [3]; dose 10.00 uM): −0.097

Source: US20230398130A1, “METHODS AND COMPOSITIONS FOR DIFFERENTIATING STEM CELLS” (Massachusetts Institute of Technology, priority 2020, published 2023)
